Source: ChEMBL document CHEMBL1201862, “PubChem BioAssay data set” (2004)
Values belong to the molecule of their own block, whether it stands above or below them. Active and inactive are the calls of the source.

Tests used:
[1] = biological target: Disintegrin and metalloproteinase domain-containing protein 17 (Homo sapiens, UniProt P78536); experiment: inhibition of ADAM17 substrate cleavage – biochemical, quenched FRET substrate, counter-screen for ADAM10 exosite inhibitor project, dose response (AID 743253)
Sequence of Disintegrin and metalloproteinase domain-containing protein 17 (P78536 whole entry, the tested form may be a part): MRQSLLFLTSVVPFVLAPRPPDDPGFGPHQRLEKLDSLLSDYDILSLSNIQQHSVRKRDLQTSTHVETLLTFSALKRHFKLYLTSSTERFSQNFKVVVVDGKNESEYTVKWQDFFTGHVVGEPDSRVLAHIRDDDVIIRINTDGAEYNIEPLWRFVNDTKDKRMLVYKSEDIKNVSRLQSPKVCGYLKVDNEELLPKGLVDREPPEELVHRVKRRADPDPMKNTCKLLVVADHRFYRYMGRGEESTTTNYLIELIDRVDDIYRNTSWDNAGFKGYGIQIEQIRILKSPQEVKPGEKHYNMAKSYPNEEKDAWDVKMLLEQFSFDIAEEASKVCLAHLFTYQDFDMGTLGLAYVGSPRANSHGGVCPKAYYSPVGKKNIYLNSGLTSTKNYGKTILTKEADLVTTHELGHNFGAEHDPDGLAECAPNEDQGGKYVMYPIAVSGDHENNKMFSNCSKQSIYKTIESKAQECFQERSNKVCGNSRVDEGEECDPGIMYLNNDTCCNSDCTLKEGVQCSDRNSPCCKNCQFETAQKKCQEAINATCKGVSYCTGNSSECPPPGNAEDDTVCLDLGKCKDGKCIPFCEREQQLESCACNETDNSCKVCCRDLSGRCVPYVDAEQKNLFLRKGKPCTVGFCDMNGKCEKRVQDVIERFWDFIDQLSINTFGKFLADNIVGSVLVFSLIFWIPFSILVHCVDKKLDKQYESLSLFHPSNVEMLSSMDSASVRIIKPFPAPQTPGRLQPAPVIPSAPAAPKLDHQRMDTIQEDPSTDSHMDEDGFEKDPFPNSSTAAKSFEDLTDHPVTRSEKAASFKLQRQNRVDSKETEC

[2] = potency of ADAM10 substrate cleavage blockers – biochemical, QFRET, dose response (AID 743254);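 note: ADAM10 enzyme with the DM2 quenched FRET peptide as substrate; EDANS fluorescence gain as the protease cuts the substrate; inhibitor potency against ADAM10 proteolytic activity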
[3] = biological target: T1, Oxysterols receptor LXR-beta (Homo sapiens, UniProt P55055); format: functional, cell-based;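 note: agonist activity at LXR measured by a cell-based luminescence readout across a dose range, run as a counterscreen for daf-12 agonists; HEK293 cells with Gal4-LXR fusion and GAL4-driven luciferase reporter; potency for activation of Gal4-LXR reporter so compounds are agonists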
T1 sequence (P55055 whole entry): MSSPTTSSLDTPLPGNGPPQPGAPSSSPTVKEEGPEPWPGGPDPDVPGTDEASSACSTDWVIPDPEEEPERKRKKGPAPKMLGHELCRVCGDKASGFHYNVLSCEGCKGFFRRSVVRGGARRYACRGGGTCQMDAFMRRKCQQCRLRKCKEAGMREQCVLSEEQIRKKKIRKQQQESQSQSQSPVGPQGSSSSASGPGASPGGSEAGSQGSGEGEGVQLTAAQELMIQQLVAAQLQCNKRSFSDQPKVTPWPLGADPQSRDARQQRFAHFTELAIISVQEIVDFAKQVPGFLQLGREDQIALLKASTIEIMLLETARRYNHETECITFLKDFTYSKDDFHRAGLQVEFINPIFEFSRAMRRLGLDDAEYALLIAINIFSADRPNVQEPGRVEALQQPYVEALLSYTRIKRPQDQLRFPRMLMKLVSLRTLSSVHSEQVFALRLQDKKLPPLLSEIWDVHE

[4] = toxicity toward HepG2 liver cells – cell-based, plate reader, cherry-pick, antagonist series, cytotoxicity control, dose response (AID 743416); format: functional
[5] = blockers of bursicon-stimulated LGR2 cAMP reporter – cell-based, HEK293, CRE-luciferase reporter, cherry pick, set 2, dose response (AID 743343); format: functional;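 note: transfected cells were stimulated with diluted bursicon conditioned medium after compound addition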
[6] = blockade of melanocortin 4 receptor signaling – cell-based, plate reader, cherry pick, counter-screen for LGR2 antagonist project, dose response (AID 743444); format: functional;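 note: transfected HEK 293 cells stimulated with alpha-MSH peptide; potency of inhibitors of the alpha-MSH evoked signal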
Albumin = Albumin (Bos taurus, UniProt P02769); experiment: Counterscreen for inhibitors of T-cell receptor (TCR)-CD3 interaction: Fluorescence-based biochemical high throughput dose response assay to identify inhibitors of T-cell receptor (TCR)-CD3 interaction using a TAMRA-labeled BSA probe.; format: functional
Sequence of Albumin (P02769 whole entry): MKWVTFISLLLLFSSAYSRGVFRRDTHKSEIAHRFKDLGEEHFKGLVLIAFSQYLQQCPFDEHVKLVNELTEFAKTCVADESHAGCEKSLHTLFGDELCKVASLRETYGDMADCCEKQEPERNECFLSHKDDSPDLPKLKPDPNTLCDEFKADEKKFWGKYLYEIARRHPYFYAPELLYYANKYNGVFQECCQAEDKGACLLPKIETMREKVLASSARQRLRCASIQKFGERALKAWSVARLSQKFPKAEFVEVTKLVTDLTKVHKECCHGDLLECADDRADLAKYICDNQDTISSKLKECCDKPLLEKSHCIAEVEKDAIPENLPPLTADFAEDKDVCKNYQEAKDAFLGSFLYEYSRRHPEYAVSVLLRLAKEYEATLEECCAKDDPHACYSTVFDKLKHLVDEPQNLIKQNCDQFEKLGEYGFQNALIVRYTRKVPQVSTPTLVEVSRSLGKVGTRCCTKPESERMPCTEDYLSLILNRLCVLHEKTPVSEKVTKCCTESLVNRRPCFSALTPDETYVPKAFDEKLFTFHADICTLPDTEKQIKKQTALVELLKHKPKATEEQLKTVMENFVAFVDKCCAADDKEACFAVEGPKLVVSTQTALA

[7] = biological target: 1-phosphatidylinositol 4,5-bisphosphate phosphodiesterase gamma-1 (Homo sapiens, UniProt P19174); experiment: Counterscreen for inhibitors of phospholipase C isozymes (PLC-B3): Fluorescence-based biochemical high throughput dose response assay to identify inhibitors of phospholipase C isozymes (PLC-gamma1).
Sequence of 1-phosphatidylinositol 4,5-bisphosphate phosphodiesterase gamma-1 (P19174 whole entry): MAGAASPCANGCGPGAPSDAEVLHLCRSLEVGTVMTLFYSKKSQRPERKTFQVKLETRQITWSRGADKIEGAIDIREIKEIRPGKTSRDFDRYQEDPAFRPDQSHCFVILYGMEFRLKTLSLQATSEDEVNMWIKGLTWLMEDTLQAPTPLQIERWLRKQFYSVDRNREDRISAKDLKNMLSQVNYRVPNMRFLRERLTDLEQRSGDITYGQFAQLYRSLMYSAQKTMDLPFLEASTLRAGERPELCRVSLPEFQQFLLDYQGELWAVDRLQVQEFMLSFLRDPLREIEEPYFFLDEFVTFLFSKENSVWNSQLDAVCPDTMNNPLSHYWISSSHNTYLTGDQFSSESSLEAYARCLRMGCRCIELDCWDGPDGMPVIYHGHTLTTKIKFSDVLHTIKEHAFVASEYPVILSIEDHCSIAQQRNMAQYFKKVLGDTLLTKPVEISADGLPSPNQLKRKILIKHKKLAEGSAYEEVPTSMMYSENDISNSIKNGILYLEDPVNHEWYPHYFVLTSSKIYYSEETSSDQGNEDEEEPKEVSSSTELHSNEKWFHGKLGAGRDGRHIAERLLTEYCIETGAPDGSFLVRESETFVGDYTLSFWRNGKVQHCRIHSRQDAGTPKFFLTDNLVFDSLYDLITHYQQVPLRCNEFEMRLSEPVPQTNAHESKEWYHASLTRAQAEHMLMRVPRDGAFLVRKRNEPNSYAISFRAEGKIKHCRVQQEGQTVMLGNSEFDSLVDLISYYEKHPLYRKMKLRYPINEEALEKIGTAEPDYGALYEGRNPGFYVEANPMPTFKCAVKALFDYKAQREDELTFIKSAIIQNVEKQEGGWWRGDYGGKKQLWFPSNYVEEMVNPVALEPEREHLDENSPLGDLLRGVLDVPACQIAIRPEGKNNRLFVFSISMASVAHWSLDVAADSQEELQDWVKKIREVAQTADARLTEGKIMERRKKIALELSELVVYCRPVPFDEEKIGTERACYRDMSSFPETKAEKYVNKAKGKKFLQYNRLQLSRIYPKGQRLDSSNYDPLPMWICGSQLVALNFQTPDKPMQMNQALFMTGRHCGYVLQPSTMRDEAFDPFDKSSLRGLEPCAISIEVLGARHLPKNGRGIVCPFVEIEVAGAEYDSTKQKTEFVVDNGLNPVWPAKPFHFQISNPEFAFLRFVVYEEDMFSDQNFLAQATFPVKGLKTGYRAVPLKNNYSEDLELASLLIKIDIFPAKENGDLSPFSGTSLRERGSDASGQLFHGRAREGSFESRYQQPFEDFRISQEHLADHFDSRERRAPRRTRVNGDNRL

[8] = biological target: Induced myeloid leukemia cell differentiation protein Mcl-1 (Homo sapiens, UniProt Q07820); format: functional
Sequence of Induced myeloid leukemia cell differentiation protein Mcl-1 (Q07820 whole entry): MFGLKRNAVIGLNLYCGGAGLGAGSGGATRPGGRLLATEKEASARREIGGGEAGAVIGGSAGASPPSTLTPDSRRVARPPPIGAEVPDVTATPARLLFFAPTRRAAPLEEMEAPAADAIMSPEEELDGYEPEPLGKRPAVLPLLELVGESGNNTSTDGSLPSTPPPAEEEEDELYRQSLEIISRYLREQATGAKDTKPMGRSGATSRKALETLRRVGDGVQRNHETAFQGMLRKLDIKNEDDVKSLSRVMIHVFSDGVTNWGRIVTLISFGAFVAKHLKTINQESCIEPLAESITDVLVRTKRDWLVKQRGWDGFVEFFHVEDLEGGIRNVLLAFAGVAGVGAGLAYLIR

[9] = biological target: 1-phosphatidylinositol 4,5-bisphosphate phosphodiesterase beta-3 (Homo sapiens, UniProt Q01970); experiment: Fluorescence-based biochemical high throughput dose response assay to identify inhibitors of phospholipase C isozymes (PLC-B3).
Sequence of 1-phosphatidylinositol 4,5-bisphosphate phosphodiesterase beta-3 (Q01970 whole entry): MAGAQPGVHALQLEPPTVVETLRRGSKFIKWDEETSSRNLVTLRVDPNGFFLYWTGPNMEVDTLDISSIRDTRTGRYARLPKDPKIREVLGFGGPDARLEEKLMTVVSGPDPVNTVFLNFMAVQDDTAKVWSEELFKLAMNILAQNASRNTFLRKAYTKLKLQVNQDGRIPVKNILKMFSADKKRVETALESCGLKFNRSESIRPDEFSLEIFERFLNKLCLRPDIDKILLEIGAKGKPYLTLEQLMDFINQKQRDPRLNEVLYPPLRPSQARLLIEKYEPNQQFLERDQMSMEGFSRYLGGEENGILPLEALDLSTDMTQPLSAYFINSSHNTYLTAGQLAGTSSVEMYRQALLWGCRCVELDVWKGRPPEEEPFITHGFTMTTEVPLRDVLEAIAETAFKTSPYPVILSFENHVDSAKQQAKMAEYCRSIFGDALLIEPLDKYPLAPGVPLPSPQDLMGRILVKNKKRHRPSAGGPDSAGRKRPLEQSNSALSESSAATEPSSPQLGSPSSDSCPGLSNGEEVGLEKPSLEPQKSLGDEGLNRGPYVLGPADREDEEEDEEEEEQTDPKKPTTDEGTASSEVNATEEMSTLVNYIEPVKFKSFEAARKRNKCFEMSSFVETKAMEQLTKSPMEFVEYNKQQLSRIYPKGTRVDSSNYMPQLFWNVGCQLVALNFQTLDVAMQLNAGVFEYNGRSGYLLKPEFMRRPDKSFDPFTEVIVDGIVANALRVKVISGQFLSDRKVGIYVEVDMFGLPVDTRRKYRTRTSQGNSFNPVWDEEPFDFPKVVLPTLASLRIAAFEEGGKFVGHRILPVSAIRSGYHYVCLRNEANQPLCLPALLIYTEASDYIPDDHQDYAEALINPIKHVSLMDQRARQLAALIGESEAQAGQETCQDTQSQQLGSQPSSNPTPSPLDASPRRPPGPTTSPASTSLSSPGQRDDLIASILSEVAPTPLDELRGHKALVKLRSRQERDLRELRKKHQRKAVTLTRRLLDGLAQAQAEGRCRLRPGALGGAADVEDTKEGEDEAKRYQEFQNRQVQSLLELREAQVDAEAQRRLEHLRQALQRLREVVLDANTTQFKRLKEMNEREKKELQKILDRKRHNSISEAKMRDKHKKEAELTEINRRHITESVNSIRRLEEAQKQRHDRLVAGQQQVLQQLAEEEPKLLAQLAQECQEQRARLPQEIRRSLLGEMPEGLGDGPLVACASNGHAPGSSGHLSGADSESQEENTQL

[10] = OVCAR-3 cell viability loss – plate reader, dry powder samples, PAX8 inhibitor project, dose response (AID 743044); format: functional, cell-based
Paired box protein Pax-8 = Paired box protein Pax-8 (Homo sapiens, UniProt Q06710); experiment: PAX8 transcriptional activity inhibition in RMG-I – RMG-I cells, luciferase, cherry-pick, dose response (AID 687027); format: functional, cell-based;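 note: luciferase reporter driven by Pax8 target thyroperoxidase promoter measured by SteadyGlo luminescence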
Sequence of Paired box protein Pax-8 (Q06710 whole entry): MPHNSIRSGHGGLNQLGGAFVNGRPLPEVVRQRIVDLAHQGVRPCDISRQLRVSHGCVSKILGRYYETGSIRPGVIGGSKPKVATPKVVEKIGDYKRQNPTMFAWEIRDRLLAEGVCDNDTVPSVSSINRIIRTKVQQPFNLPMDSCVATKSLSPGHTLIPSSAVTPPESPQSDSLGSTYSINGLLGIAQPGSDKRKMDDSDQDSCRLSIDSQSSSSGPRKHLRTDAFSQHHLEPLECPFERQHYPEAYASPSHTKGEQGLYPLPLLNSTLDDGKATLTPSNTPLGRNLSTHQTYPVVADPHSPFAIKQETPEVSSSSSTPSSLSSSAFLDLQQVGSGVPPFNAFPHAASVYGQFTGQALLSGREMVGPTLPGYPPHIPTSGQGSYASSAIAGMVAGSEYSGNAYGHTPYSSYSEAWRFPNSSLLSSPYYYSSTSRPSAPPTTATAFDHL

[11] = toxicity toward immortalized ovarian surface epithelium – cell-based, plate reader, dry powder samples, cytotoxicity control for PAX8 inhibitor project, dose response (AID 743045); format: functional
[12] = OVCAR8 cell viability loss – plate reader, dry powder samples, PAX8 project, dose response (AID 743197); format: functional, cell-based; conditions: OVCAR-8
[13] = A2780 cell killing – plate reader, dry powder samples, cytotoxicity control, dose response (AID 743046); format: functional, cell-based
[14] = general cell-killing toxicity readout – plate reader, dry powder samples, cytotoxicity control for PAX8 inhibitor project, dose response (AID 743021); format: functional, cell-based
[15] = IGROV1 cell killing – plate reader, dry powder samples, PAX8 inhibitor project, dose response (AID 743043); format: functional, cell-based; conditions: IGROV-1
[16] = biological target: Metabotropic glutamate receptor 5 (Rattus norvegicus, UniProt P31424); experiment: Identification of a glycine sulfonamide based non-MPEP site positive allosteric potentiator (PAM) of mGlu5 (calcium_assay).; format: functional
[17] = reduction of Shn3 3'UTR-driven luciferase in osteoblasts – cell-based, Clone20 osteoblasts, firefly luciferase, cherry-picked, dose response (AID 624132); format: functional;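 note: firefly luciferase luminescence from reporter carrying the Shn3 3'UTR in osteoblasts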
[18] = viability of PTEN-deleted HCT116 cells – cell-based, HCT116 PTEN knockout, dose response (AID 1047); format: functional;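 note: HCT116 colon tumor cells with PTEN knocked out; cells exposed to compound for 60 hours before readout; potency for loss of cell viability measured by luminescence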
[19] = viability loss in HepG2 hepatoma cells – cell-based, ATP luminescence, cherry-pick, activator set 2, cytotoxicity control, dose response (AID 1053143); format: functional
[20] = non-specific 3'UTR reporter inhibition in Clone20-Shn3RL – cell-based, Renilla luciferase, cherry-picked, counter-screen for Shn3 inhibitor project, dose response (AID 624133); format: functional
[21] = viability of HCT116 lacking mutant beta-catenin – cell-based, human colon tumor, dose response (AID 1045); format: functional;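 note: HCT116 colon tumor cells with beta catenin knocked out; cells exposed to compound for 60 hours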
[22] = loss of viability in HepG2 cells – cell-based, CellTiter-Glo, cherry-picked, cytotoxicity control for Shn3 inhibitor project, dose response (AID 624134); format: functional
[23] = biological target: Metabotropic glutamate receptor 3 (Rattus norvegicus, UniProt P31422); experiment: inhibitors of rat mGlu3 Galpha15 signaling – TREx293 cells, calcium flux, mGlu3 NAM project, dose response (AID 651840); format: functional
Caspase-6 = Caspase-6 (Homo sapiens, UniProt P55212); experiment: inhibition of CASP6 peptide cleavage – biochemical, VEID-R110 fluorescence, cherry-pick, dose response (AID 720632)
Sequence of Caspase-6 (P55212 24-179 limits assumed): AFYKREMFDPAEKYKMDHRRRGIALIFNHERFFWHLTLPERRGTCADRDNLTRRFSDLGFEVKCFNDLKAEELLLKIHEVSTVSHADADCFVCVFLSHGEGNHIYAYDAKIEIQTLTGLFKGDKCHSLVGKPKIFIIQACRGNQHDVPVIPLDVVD
Sequence of Caspase-6 (P55212 194-293 limits assumed): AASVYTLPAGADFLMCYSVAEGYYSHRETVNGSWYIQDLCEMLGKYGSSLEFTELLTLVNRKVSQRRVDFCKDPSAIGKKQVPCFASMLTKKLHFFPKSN

Genome polyprotein = Genome polyprotein (dengue virus type 2, UniProt P29990); experiment: flavivirus cap methylation enzyme inhibition – biochemical, confirmation dose response, primary screen (AID 588689); format: functional
[24] = biological target: NAD-dependent protein deacylase sirtuin-5, mitochondrial (Homo sapiens, UniProt Q9NXA8); experiment: sirtuin-5 deacylation blockers, concentration series – biochemical, fluorescence imaging, cherry-pick, set 5, dose response (AID 720591);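 note: desuccinylation of succinyl peptide AMC substrate read as fluorescence after trypsin release; potency of inhibitors that lower fluorescence and may act on trypsin instead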
[25] = viability loss in human Jurkat cells – cell-based, luminescence, cytotoxicity control for P. falciparum gametocyte viability project, dose response (AID 1117277); format: functional;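 note: potency reflects loss of cellular ATP meaning fewer viable cells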
[26] = viability inhibitors of stage V gametocytes – luminescence, dose response (AID 1117278); format: functional, cell-based;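 note: gametocytes exposed to compound for 24 hours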
[27] = toxicity to human hepatoma HepG2 cells – cell-based, cherry-picked samples, cytotoxicity control, dose response (AID 1159577); format: functional
Mu-type opioid receptor = Mu-type opioid receptor (Homo sapiens, UniProt P35372); format: functional, cell-based;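 note: U2OS cells with beta-arrestin recruitment to OPRM1 by beta-gal complementation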
[28] = biological target: 5-hydroxytryptamine receptor 2A (Mus musculus, UniProt P35363); format: functional, cell-based;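 note: CHO-K1 cells with tagged receptor and beta-arrestin; agonist potency measured as compound-induced activation of the receptor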

IC50 [1]: > 69.5 µM (inactive)
IC50 [2]: 7.59 µM (active)
Compound: CC(O)(c1ccc(F)c(F)c1)c1nc(-c2cccc(C(F)(F)F)c2)cs1 (stereo not drawn)

EC50 [3]: > 67.5 µM (inactive)
Compound: Cc1ccc(N/N=C(\C#N)C(=N)N2CCCCCC2)cc1

Compound: Cc1ccc(-c2nc(-c3ccncc3)no2)cc1C
EC50 [3]: > 67.5 µM (inactive)
AC50 [4]: > 52 µM (inactive)
AC50 [5]: 17.8 µM (active)
AC50 [6]: 25.8 µM (active)

IC50 (Albumin): > 94.1 µM (inactive)
IC50 [7]: > 122 µM (inactive)
IC50 [8]: 3.16 µM (not active)
IC50 [9]: > 122 µM (inactive)
Compound: O=C1/C(=C/c2ccco2)SC(=S)N1c1cccnc1

Compound: C[C@H](CO)N1C[C@H](C)[C@@H](CN(C)S(=O)(=O)c2ccc(F)cc2)OCCCC[C@H](C)Oc2ccc(NS(=O)(=O)c3ccc(Cl)cc3)cc2C1=O
AC50 [10]: 11.9 µM (active)
AC50 (Paired box protein Pax-8): 4.97 µM (active)
AC50 [11]: 13.1 µM (active)
AC50 [12]: 14.9 µM (active)
AC50 [13]: 23.3 µM (active)
AC50 [14]: 49.2 µM (active)
AC50 [15]: 35.1 µM (active)

EC50 [16]: 10 µM (inconclusive)
Compound: CS(=O)(=O)N1c2ccccc2CCC1C(=O)Nc1ccncc1 (stereo not drawn)

Compound: Cc1cccc(/C=C(\c2nc3ccccc3[nH]2)S(=O)(=O)c2ccccc2)c1
AC50 [17]: 4.5 µM (active)
AC50 (Paired box protein Pax-8): 4.1 µM (active)
EC50 [18]: 2.33 µM (active)
AC50 [19]: 11.1 µM (active)
AC50 [20]: 7.04 µM (active)
EC50 [21]: 2.37 µM (active)
AC50 [22]: 24.5 µM (active)

IC50 [23]: 2.01 µM
Compound: COc1ccc(C#Cc2ccc(C(=O)N3CCCC(C)(C)C3)cc2)cc1

AC50 (Caspase-6): 8.47 µM (active)
IC50 (Genome polyprotein): 26.7 µM (active)
Compound: O=C(O)c1cccc(N2C(=O)c3cc([N+](=O)[O-])cc4cc([N+](=O)[O-])cc(c34)C2=O)c1

AC50 [24]: > 30 µM (inactive)
Compound: COc1ccc(N(C(C)=O)c2nc3ccccc3[nH]2)cc1

IC50 [1]: > 69.5 µM (inactive)
IC50 [2]: > 69.5 µM (inactive)
Compound: NC(=O)[C@H]1CC2(CC(c3cccc(NC(=O)CC(c4ccccc4)c4ccccc4)c3)=NO2)CN1C(=O)CC(c1ccccc1)c1ccccc1 (stereo partly drawn)

Compound: CC(C)CNC(=O)c1cccc(NC(=O)COc2ccc([N+](=O)[O-])cc2)c1
IC50 [25]: > 83.3 µM (inactive)
IC50 [26]: > 109 µM (inactive)

Compound: C[C@@H]1CN([C@@H](C)CO)C(=O)Cc2cc(NC(=O)Nc3ccc4c(c3)OCO4)ccc2O[C@H]1CN(C)Cc1ccc2c(c1)OCO2
AC50 [27]: > 39 µM (inactive)

Compound: CN1CCc2c(sc(NC(=O)Cc3ccccc3)c2C#N)C1
AC50 (cells): 66.1 µM (active)
EC50 (Mu-type opioid receptor): 92.5 µM (inactive)
EC50 [28]: 48.2 µM (inactive)
